In PMC8878452, “A Tale of Toxin Promiscuity: The Versatile Pharmacological Effects of Hcr 1b-2 Sea Anemone Peptide on Voltage-Gated Ion Channels” (Marine Drugs, 2022):
Bridges are numbered along the chain shown (N, C = ends). Where no end group is shown, it is not given here.

Key:
hKv2.1 = assay: TEVC, Kv2.1 in Xenopus oocytes; format: cell-based, human
Source text: (§1) For the expression of Kv channels (rKv1.1, rKv1.2, rKv1.3, rKv1.4, rK1.5, rKv1.6, hKv2.1, hKv3.1, rKv4.2, hKv7.1, hKv7.2/7.3, hKv7.4, KQT1 (from the roundworm Caenorhabditis elegans), hKv10.1 (hEAG1), hKv11.1 (hERG1), and Shaker, from Drosophila melanogaster), Nav channels (rNav1.1, rNav1.2, rNav1.3, rNav1.4, hNav1.5, mNav1.6, hNav1.7, hNav1.8, and BgNav (from the cockroach Blattella germanica), as well as the hβ1 and rβ1 subunits, and Cav channels (rCav3.1, hCav3.2, and rCav3.3) in Xenopus oocytes, the linearized plasmids were transcribed using the T7 or SP6 mMESSAGEmMACHINE transcription kit (Ambion, Austin, TX, USA). Mature female animals were purchased from Nasco (Fort Atkinson, WI, USA) and were housed in the Aquatic Facility (KU Leuven) in compliance with the regulations of the European Union (EU) concerning the welfare of laboratory animals as declared in Directive 2010/63/EU. The use of X. laevis oocytes was approved by the Animal Ethics Committee of the KU Leuven, with the license number P186/2019.
(§2) Stage V–VI oocytes were collected from anesthetized female X. laevis frog as previously described, with the frogs anesthetized by placement in a 0.1% tricaine solution (amino benzoic acid ethyl ester; Merck, Kenilworth, NJ, USA). Oocyte microinjection was performed using a microinjector (Drummond Scientifc®, Broomall, PA, USA), with a programmed cRNA injection volume of 4–50 nL, depending on channel subtype. The oocytes were incubated in ND96 solution (96 mM NaCl; 2 mM KCl; 1.8 mM CaCl2; 2 mM MgCl2, and 5 mM HEPES, pH 7.4), supplemented with 50 mg/L of gentamicin sulfate.
(§3) Electrophysiological measurements were performed at room temperature (18–22 °C) using the two-electrode voltage-clamp (TEVC) technique. Data were obtained using a GeneClamp 500 amplifier (Axon Instruments®, Burlingame, CA, USA) and Clampex9 software (Axon Instruments®, USA) was responsible for data acquisition and storage. Glass micropipettes were produced using glass capillaries (borosilicate WPI 1B120-6) and drawn in a WPI (World Precision Instruments®, Sarasota, FL, USA) manual stretcher. The bath and perfusion solutions were either the previously described ND96 (Nav and Kv channels) or calcium-free ND96 supplemented with 10 mM BaCl2 (Cav channels).
(§4) Whole-cell currents of oocytes were recorded 1 to 3 days after RNA injection. The current and voltage electrodes were filled with 3 M KCl, and their resistance was adjusted from 1.0 to 2.5 MΩ. Currents were sampled at 20 kHz (Nav channels) and 10 kHz (Kv and Cav channels) and filtered using a four-pole Bessel low-pass Bessel filter at 1 kHz for sodium and […] for potassium and calcium, except for the hERG ion channel in which the currents were filtered at 1 kHz. Leak subtraction was performed using a P/4 protocol. Kv1.x currents were evoked by 500 ms depolarizations to 0 mV, followed by a 500 ms pulse to −50 mV from a holding potential of −90 mV. Kv2.1, Kv3.1, Kv4.2, Kv7.x, and KQT1 currents were elicited by 700 ms pulses to +20 mV from a holding potential of −90 mV. Current traces of the hERG1 channel were elicited by applying a +40 mV prepulse for 2 s, followed by a step of −120 mV for 2 s. […] The current–voltage relationships were determined by 50 ms step depolarizations between −90 and +65 mV using 5 or 10 mV increments. All electrophysiological data were analyzed following the procedures described by Peigneur et al., 2012 [20].
(§5) All values were expressed as means ± SEM. […]

rNav1.4 = assay: TEVC, Nav1.4 in Xenopus oocytes; format: cell-based, rat
Source text: as §1, §2, §3, §4, §5

[1] = tested on: voltage-gated potassium (KV), sodium (NaV), and calcium (CaV) channels; assay: TEVC screening panel of 28 voltage-gated ion channels; format: cell-based; conditions: 1 µM; 28 channels screened
Source text: as §1, with “P186/2019. […]” for “P186/2019.”
Whole-cell currents of oocytes were recorded 1 to 3 days after RNA injection. […] The current–voltage relationships were determined by 50 ms step depolarizations between −90 and +65 mV using 5 or 10 mV increments. All electrophysiological data were analyzed following the procedures described by Peigneur et al., 2012 [20].
as §5

With “GTPCKCHGYIGVYWFMLAGCPNGYGYNLSCPYFLGICCVKK (disulfide 4-37, 6-30, 20-38 (inferred)) [Hcr 1b-2]” the “gating-modifier effect (voltage-current relationship), Kv2.1” value (hKv2.1; 1 µM) was “non-significant gating-modifier effect”, the “Shift in Vhalf activation, Kv2.1” value (hKv2.1; 1 µM vs control (ND96)) was 2.6 mV and the “activity (inhibition of current), Kv2.1” value (hKv2.1; 1 µM, 700 ms pulse to +20 mV from −90 mV, mean ± SEM, n ≥ 3) was 32.6 ± 3.4%. The “effect on potassium current, Kv2.1” value (hKv2.1; 1 µM, TEVC, ND96 pH 7.4, 18–22 °C, n ≥ 3) was “inhibition”, the “Vhalf activation, Kv2.1” value (hKv2.1; 1 µM, control (ND96) 5.3 ± 0.3, mean ± SEM) was 8.0 ± 0.2 mV and the “Shift in Vhalf activation, Nav1.4” value (rNav1.4; 1 µM vs control (ND96)) was 5.5 mV. The “Shift in Vhalf inactivation, Nav1.4” value (rNav1.4; 1 µM vs control (ND96)) was −1.7 mV, the “reduction of peak amplitude (INa), Nav1.4” value (rNav1.4; 1 µM, 100 ms depolarization to 0 mV, mean ± SEM, n ≥ 3) was 29.1 ± 3.0% and the “Vhalf activation, Nav1.4” value (rNav1.4; 1 µM, control (ND96) −24.4 ± 0.1, mean ± SEM, n ≥ 3) was −18.9 ± 0.1 mV. For the same sequence, the “Vhalf inactivation, Nav1.4” value (rNav1.4; 1 µM, control (ND96) −48.5 ± 0.3, mean ± SEM, n ≥ 3) was −50.2 ± 0.2 mV and the “number of targets acted on, of 28 screened ion channels” value [1] was 26 targets.
